This is an account of results in publication PMC5587682 (Scientific Reports, 2017).

Data set [1] relates to A/Parma/05/06 H3N2.
For data set [2], the system named is A/Parma/05/06 H3N2. The data set is classed as cell-based, Influenza A virus. As to conditions: turkey erythrocytes.
Data set [3] has as its system A/Roma-ISS/02/08 H1N1 oseltamivir-sensitive virus. The format is cell-based, Influenza A virus. The settings on record: turkey erythrocytes.
Data set [4] relates to Influenza A virus strains (all tested viruses). The settings on record: earlier work; ref [23]; cited from earlier work.
Data set [5] shares this test system. The settings on record: earlier work; ref [23]; cited from earlier work. The source holds these as a separate data set.
The mark [6] stands for this setting: A/Roma-ISS/02/08 H1N1, MDCK cells, CC50 >25 μM.
The mark [7] stands for this setting: A/Parma/24/09 H1N1, MDCK cells, CC50 >25 μM.
Setting [8] is: A/Parma/05/06 H3N2, MDCK cells, CC50 >25 μM.
Where [9] appears, read: A/Roma-ISS/02/08 H1N1, MDCK cells, mean of 3 experiments with standard errors.
The mark [10] stands for this setting: A/Parma/24/09 H1N1, MDCK cells, mean of 3 experiments with standard errors.
Setting [11] is: A/Parma/05/06 H3N2, MDCK cells, mean of 3 experiments with standard errors.
Setting [12] is: A/Roma-ISS/2/08 H1N1, neutralization.

Where two headings read alike, the source gives them in different places. Positions of bridges follow the written chain, without caps; N, C: chain ends. Residues, ends and D or L forms follow the SMILES beside them.

For the compound `CC(C)C[C@H](NC(=O)[C@H](CO)NC(=O)[C@H](CO)NC(=O)[C@H](Cc1c[nH]cn1)NC(=O)[C@H](CCCCN)NC(=O)[C@@H](N)CO)C(=O)N[C@@H](CC(=O)O)C(=O)N[C@@H](CS)C(=O)N[C@H](C(=O)N[C@@H](CC(C)C)C(=O)N[C@@H](CCCNC(=N)N)C(=O)N1CCC[C@H]1C(=O)O)C(C)C` [Peptide 1, SKHSSLDCVLRP] (H-SKHSSLDCVLRP-OH), the “SI (CC50/EC50)” value in the data set with A/Roma-ISS/02/08 H1N1 (setting [6]) is reported as >6.25.10^6; with A/Parma/24/09 H1N1 (setting [7]), >8.10^6; in the data set on A/Parma/05/06 H3N2 [1] (setting [8]), >4.4.10^6.
The EC50 is the midpoint of the concentration-response curve. Consider `CC(C)C[C@H](NC(=O)CNC(=O)[C@H](CCC(=O)O)NC(=O)[C@H](CC(N)=O)NC(=O)[C@H](C)NC(=O)[C@@H](N)CCCCN)C(=O)N[C@H](C(=O)N[C@@H](Cc1c[nH]c2ccccc12)C(=O)N[C@@H](CC(N)=O)C(=O)N[C@@H](CO)C(=O)N[C@@H](CC(C)C)C(=O)N[C@@H](CCCCN)C(=O)N[C@@H](CC(=O)O)C(=O)N[C@@H](CCCCN)C(=O)O)[C@@H](C)O` [Peptide 4, KANEGLTWNSLKDK] (H-KANEGLTWNSLKDK-OH), for which the figures for the “SI (CC50/EC50)” value in the data set on A/Roma-ISS/02/08 H1N1 (setting [6]), in the data set with A/Parma/24/09 H1N1 (setting [7]) and with A/Parma/05/06 H3N2 [1] (setting [8]) were >2.5.10^7, >5.10^2 and >2.5.10^4, respectively. The EC50 with A/Roma-ISS/02/08 H1N1 (setting [9]) stood at 1 ± 0.15 pM.
Turning to `C[C@H](NC(=O)CNC(=O)[C@@H]1CCCN1C(=O)[C@H](C)NC(=O)[C@@H]1CSSC[C@H](NC(=O)[C@H](CO)NC(=O)CNC(=O)[C@@H](N)[C@@H](C)O)C(=O)N[C@@H](C)C(=O)N[C@@H](Cc2ccccc2)C(=O)N[C@@H](CC(=O)O)C(=O)N[C@@H](CCC(=O)O)C(=O)N[C@@H](Cc2ccccc2)C(=O)N[C@@H](Cc2ccccc2)C(=O)N[C@@H](CO)C(=O)N[C@@H](CCC(N)=O)C(=O)N[C@@H](CO)C(=O)N1)C(=O)N[C@@H](CC(=O)O)C(=O)N1CCC[C@H]1C(=O)N[C@@H](CCCCN)C(=O)N[C@@H](CO)C(=O)N[C@@H](CCCNC(=N)N)C(=O)O` [Peptide 5] (H-TGSCAFDEFFSQSCAPGADPKSR-OH; disulfide 4-14; N-terminus assumed), the HI titer with A/Parma/05/06 H3N2 [2] turned out to be 97 nM.
As for `C[C@H](NC(=O)[C@H](Cc1c[nH]c2ccccc12)NC(=O)[C@H](CC(=O)O)NC(=O)[C@H](C)NC(=O)[C@@H](NC(=O)[C@H](CO)NC(=O)[C@H](CCC(=O)O)NC(=O)CNC(=O)[C@H](CC(N)=O)NC(=O)[C@@H](N)[C@@H](C)O)[C@@H](C)O)C(=O)N[C@@H](CCCCN)C(=O)N[C@@H](CC(N)=O)C(N)=O` [Peptide 6, TNGESTADWAKN] (H-TNGESTADWAKN-NH2; N-terminus and C-terminus assumed), the HI titer is recorded as 0.7 nM in data set [3] and 0.3 nM in the data set on A/Parma/05/06 H3N2 [2]. Also, the “SI (CC50/EC50)” value in the data set on A/Roma-ISS/02/08 H1N1 (setting [6]) is >6.25.10^4; with A/Parma/24/09 H1N1 (setting [7]), >5.10^2; in the data set on A/Parma/05/06 H3N2 [1] (setting [8]), >2.5.10^3. A half-maximal response with A/Roma-ISS/02/08 H1N1 (setting [9]) (EC50) required 400 ± 0.02 pM.
With `C[C@@H](O)[C@H](NC(=O)[C@H](CCC(=O)O)NC(=O)[C@H](CO)NC(=O)[C@@H](N)CCCCN)C(=O)N[C@@H](CCCCN)C(=O)N[C@@H](CC(N)=O)C(=O)O` [Peptide 8, KSETKN] (H-KSETKN-OH; N-terminus and C-terminus assumed), the HI titer in data set [3] was determined as 1.5 nM; with A/Parma/05/06 H3N2 [2] it was 3 nM. The “SI (CC50/EC50)” value in the data set on A/Roma-ISS/02/08 H1N1 (setting [6]) is recorded as >5.10^7; with A/Parma/24/09 H1N1 (setting [7]) it was >5.10^4; in the data set on A/Parma/05/06 H3N2 [1] (setting [8]), >0.65.10^2. In the data set on A/Parma/24/09 H1N1 (setting [10]), the EC50 came out at 500 ± 0.46 pM.
For `CC(C)C[C@H](NC(=O)[C@@H](NC(=O)[C@H](CS)NC(=O)[C@H](CC(=O)O)NC(=O)[C@H](CC(C)C)NC(=O)[C@@H](N)CO)C(C)C)C(=O)N[C@@H](CCCNC(=N)N)C(=O)N1CCC[C@H]1C(N)=O` [Peptide 13, SLDCVLRP] (H-SLDCVLRP-NH2), the HI titer in data set [3] amounted to 0.0007 nM; in the data set with A/Parma/05/06 H3N2 [2], 0.0004 nM. Also, the “SI (CC50/EC50)” value in the data set with A/Roma-ISS/02/08 H1N1 (setting [6]) is listed as >8.33.10^7; with A/Parma/24/09 H1N1 (setting [7]), >1.10^7; with A/Parma/05/06 H3N2 [1] (setting [8]), >8.33.10^4. The figures for the EC50 with A/Parma/24/09 H1N1 (setting [10]) and in the data set on A/Parma/05/06 H3N2 [1] (setting [11]) were 2.5 ± 0.37 pM and 300 ± 0.2 pM, respectively. Besides, the “loss of activity with respect to 1” value in the data set on A/Parma/05/06 H3N2 [1] (H3N2 strain, neutralization) was “≈ 50 fold”.
Regarding `CC(=O)N[C@H](C(=O)N[C@@H](CC(C)C)C(=O)N[C@@H](CCCNC(=N)N)C(=O)N1CCC[C@H]1C(N)=O)C(C)C` [Peptide 14, VLRP] (Ac-VLRP-NH2), the “SI (CC50/EC50)” value in the data set with A/Roma-ISS/02/08 H1N1 is >5.55.10^7; in the data set on A/Parma/24/09 H1N1, >2.5.10^7; with A/Parma/05/06 H3N2 [1] it was >1.10^5. Further, the concentration for a half-maximal effect (EC50) was found to be 1 ± 0.05 pM in the data set with A/Parma/24/09 H1N1 (A/Parma/24/09, 1 h) and 250 ± 0.42 pM in the data set on A/Parma/05/06 H3N2 [1] (A/Parma/05/06, 1 h).
For the compound `CC(=O)N[C@@H](CO)C(=O)N[C@@H](CC(C)C)C(=O)N[C@@H](CC(=O)O)C(=O)N[C@@H](CS)C(N)=O` [Peptide 15, SLDC] (Ac-SLDC-NH2), the figures for the “SI (CC50/EC50)” value with A/Roma-ISS/02/08 H1N1 (setting [6]) and with A/Parma/24/09 H1N1 (setting [7]) were >5.10^7 and >5.4.10^6, respectively. Moreover, the response in the data set on A/Parma/24/09 H1N1 (setting [10]) was half-maximal at 4.6 ± 0.05 pM (EC50).
Take `CC(C)C[C@H](NC(=O)[C@H](CO)NC(=O)[C@H](CO)NC(=O)[C@H](Cc1c[nH]cn1)NC(=O)[C@H](CCCCN)NC(=O)[C@@H](N)CO)C(=O)N[C@@H](CC(=O)O)C(=O)N[C@@H](CS)C(=O)O` [Peptide 16, SKHSSLDC] (H-SKHSSLDC-OH; N-terminus and C-terminus assumed): the HI titer in data set [3] came out at 0.3 nM; in the data set on A/Parma/05/06 H3N2 [2], 12 nM. For the same compound, the “fold less active than 1” value in the data set with A/Roma-ISS/02/08 H1N1 (setting [12]) is reported as 20 fold. Further, the “fold less active than 13” value in the data set with A/Roma-ISS/02/08 H1N1 (setting [12]) came out at 270 fold. The results for the “SI (CC50/EC50)” value with A/Roma-ISS/02/08 H1N1 (setting [6]), with A/Parma/24/09 H1N1 (setting [7]) and in the data set on A/Parma/05/06 H3N2 [1] (setting [8]) were >3.125.10^5, >2.5.10^8 and >5.10^6, respectively. Further, the EC50 in the data set with A/Roma-ISS/02/08 H1N1 (setting [9]) is 80 ± 0.19 pM; in the data set on A/Parma/05/06 H3N2 [1] (setting [11]), 5 ± 0.45 pM. In the data set on A/Parma/24/09 H1N1 (A/Parma/24/09 H1N1, neutralization), the “fold more potent than 1” value stood at 30 fold.
As for `CC(=O)N[C@@H](CO)C(=O)N[C@@H](CCCCN)C(=O)N[C@@H](Cc1c[nH]cn1)C(=O)N[C@@H](CO)C(N)=O` [Peptide 17, SKHS] (Ac-SKHS-NH2), the “SI (CC50/EC50)” value in the data set on A/Roma-ISS/02/08 H1N1 is reported as >8.33.10^6; in the data set with A/Parma/24/09 H1N1 it was >5.2.10^8; in the data set with A/Parma/05/06 H3N2 [1], >5.10^6. In addition, the EC50 in the data set on A/Roma-ISS/02/08 H1N1 (A/Roma-ISS/02/08, 1 h) stood at 3 ± 0.61 pM; in the data set with A/Parma/05/06 H3N2 [1] (A/Parma/05/06, 1 h), 5 ± 0.02 pM.
Regarding “AGDDQGLDKCVPNSKEK [Peptide 2, bLf C-lobe fragment 506–522]”, the “concentration inhibiting viral hemagglutination” value in data set [4] was “low picomolar”. The “concentration inhibiting viral infection” value in data set [5] is recorded as “low picomolar”.
NGESSADWAKN [Peptide 3]: the “concentration inhibiting viral hemagglutination” value in data set [4] is “low picomolar”. Also, the “concentration inhibiting viral infection” value in data set [5] is listed as “low picomolar”.
Take “NRKSSKHSSLDCVLRP [Peptide 11, bLf C-lobe fragment 414–429]”: in the data set on A/Parma/05/06 H3N2 [2], the HI titer is 0.4 nM.
In the case of “NRKSSKHSSLDCVLRPTEGY [Peptide 10, bLf C-lobe fragment 414–433]”, the values for the HI titer (in data set [3]; in the data set on A/Parma/05/06 H3N2 [2]) were 0.3 nM and 0.0014 nM, respectively.
“SKHSSLDCVLRPTEGY [Peptide 12, bLf C-lobe fragment 418–433]”: the figures for the HI titer (in data set [3]; with A/Parma/05/06 H3N2 [2]) were 0.7 nM and 0.03 nM, respectively.
